Literature values as cited in patent US20090117053A1, “LOCAL DELIVERY OF 5-AMINOLEVULINIC-ACID BASED COMPOUNDS TO TISSUES AND ORGANS FOR DIAGNOSTIC AND THERAPEUTIC PURPOSES” (Boston Scientific Scimed, Inc., priority 2007, published 2009).

Experiments:
[1] = comparison between ALA-based compounds
protoporphyrin IX (PPIX) = conditions: compared with ALA hydrochloride and various other ALA ester hydrochlorides
[2] = compared with ALA hydrochloride and various other ALA ester hydrochlorides

Molecule	hydrophilicity (relative ranking) [1]	PPIX levels (protoporphyrin IX (PPIX))	phototoxicity [2]
CCOC(=O)CCC(=O)CN.Cl [ALA ethyl ester hydrochloride]	more hydrophilic than ALA n-propyl ester hydrochloride		
Cl.NCC(=O)CCC(=O)O [ALA hydrochloride, 5-aminolevulinic acid hydrochloride]	more hydrophilic than ALA methyl ester hydrochloride		
COC(=O)CCC(=O)CN.Cl [ALA methyl ester hydrochloride]	more hydrophilic than ALA ethyl ester hydrochloride		
Cl.NCC(=O)CCC(=O)OCCC(F)(F)C(F)(F)C(F)(F)C(F)(F)F [ALA nonafluorohexylester hydrochloride]		appreciably increased PPIX levels	improved phototoxicity
CCCCCCSC(=O)CCC(=O)CN.Cl [ALA thiohexylester hydrochloride, ALA thiohexyl ester hydrochloride]		appreciably increased PPIX levels	improved phototoxicity
ALA dibenzyldiester dihydrochloride		appreciably increased PPIX levels	improved phototoxicity
